Results reported in paper PMC7948503, “Optimization of a peptide ligand for the adhesion GPCR ADGRG2 provides a potent tool to explore receptor biology” (The Journal of Biological Chemistry, 2020).
pEC50: −log10 of the molar value. Non-standard residues stand in square brackets, D forms with d. Residues, ends and D or L forms follow the SMILES beside them. Phe(4-Me) = Cc1ccc(C[C@H](N)C(=O)O)cc1

How the values were obtained:
Experiment in all cases: GloSensor cAMP assay
Type in all cases: cell-based
ADGRG2-ΔGPS-β F747A = target: T1, ADGRG2-ΔGPS-β F747A (Mus musculus, UniProt Q8CJ12, F761A); conditions: mutant F747A; HEK293, cAMP Glosensor
T1 construct: expressed in transfected cells; host or cells: HEK293
From the text: (§1) Wildtype ADGRG2 full-length (ADGRG2-FL) was cloned from mouse total cDNA libraries using the following primers: forward, […]; reverse, […], and then ADGRG2-FL, ADGRG2 C-terminal truncation mutant (ADGRG2-β), and ADGRG2-ΔGPS-β (the entire ECD of ADGRG2 was deleted) were subcloned into the pcDNA3.1 expression vector. The ADGRG2-ΔGPS-β mutants (T610A, Y611A, C614A, S661A, W662A, I663A, L665A, Y666A，N667A, F671A, L679A, L683A, I730A, V731A, F741A, F747A, W757A, I758A, N759A, S760A, V762A, F764A, Y765A, V768A, V769A, F772A, V774A, W824A, F826A, F828A, F829A, V834A, V836A, F838A, M839A, I844A, F845A) were generated using a QuikChange Mutagenesis Kit (Stratagene). All mutations were verified by DNA sequencing.
(§2) The Glosensor cAMP assay was performed as described ([6], [39], [40]). HEK293 cells were transfected with the GloSensor plasmid and the desired expression plasmids in 24-well dishes. Twenty-four hours after transfection, the cells were plated on 96-well plates at a cell density of 20,000 cells/well. The cells were maintained in Dulbecco’s modified Eagle’s medium for another 24 h, washed with PBS, and then incubated with 100 μl of solution containing 10% fetal bovine serum, 2% (v/v) GloSensor cAMP reagent, and 88% CO2-independent medium in each well for 2 h. The cAMP signal was examined using a luminescence counter (Mithras LB 940).

ADGRG2-ΔGPS-β F772A = target: T2, ADGRG2-ΔGPS-β F772A (Mus musculus, UniProt Q8CJ12, F786A); conditions: mutant F772A; HEK293, cAMP Glosensor
T2 construct: expressed in transfected cells; host or cells: HEK293
From the text: as §1, §2

ADGRG2-ΔGPS-β F764A = target: T3, ADGRG2-ΔGPS-β F764A (Mus musculus, UniProt Q8CJ12, F778A); conditions: mutant F764A; HEK293, cAMP Glosensor
T3 construct: expressed in transfected cells; host or cells: HEK293
From the text: as §1, §2

ADGRG2-ΔGPS-β W824A = target: T4, ADGRG2-ΔGPS-β W824A (Mus musculus, UniProt Q8CJ12, W838A); conditions: mutant W824A; HEK293, cAMP Glosensor
T4 construct: expressed in transfected cells; host or cells: HEK293
From the text: as §1, §2

ADGRG2-ΔGPS-β W662A = target: T5, ADGRG2-ΔGPS-β W662A (Mus musculus, UniProt Q8CJ12, W676A); conditions: mutant W662A; HEK293, cAMP Glosensor
T5 construct: expressed in transfected cells; host or cells: HEK293
From the text: as §1, §2

ADGRG2-ΔGPS-β Y765A = target: T6, ADGRG2-ΔGPS-β Y765A (Mus musculus, UniProt Q8CJ12, Y779A); conditions: mutant Y765A; HEK293, cAMP Glosensor
T6 construct: expressed in transfected cells; host or cells: HEK293
From the text: as §1, §2

ADGRG2-ΔGPS-β T610A = target: T7, ADGRG2-ΔGPS-β T610A (Mus musculus, UniProt Q8CJ12, T624A); conditions: mutant T610A; HEK293, cAMP Glosensor
T7 construct: expressed in transfected cells; host or cells: HEK293
From the text: as §1, §2

ADGRG2-ΔGPS-β W757A = target: T8, ADGRG2-ΔGPS-β W757A (Mus musculus, UniProt Q8CJ12, W771A); conditions: mutant W757A; HEK293, cAMP Glosensor
T8 construct: expressed in transfected cells; host or cells: HEK293
From the text: as §1, §2

ADGRG2-ΔGPS-β V768A = target: T9, ADGRG2-ΔGPS-β V768A (Mus musculus, UniProt Q8CJ12, V782A); conditions: mutant V768A; HEK293, cAMP Glosensor
T9 construct: expressed in transfected cells; host or cells: HEK293
From the text: as §1, §2

ADGRG2-ΔGPS-β F828A = target: T10, ADGRG2-ΔGPS-β F828A (Mus musculus, UniProt Q8CJ12, F842A); conditions: mutant F828A; HEK293, cAMP Glosensor
T10 construct: expressed in transfected cells; host or cells: HEK293
From the text: as §1, §2

ADGRG2-ΔGPS-β V769A = target: T11, ADGRG2-ΔGPS-β V769A (Mus musculus, UniProt Q8CJ12, V783A); conditions: mutant V769A; HEK293, cAMP Glosensor
T11 construct: expressed in transfected cells; host or cells: HEK293
From the text: as §1, §2

ADGRG2-ΔGPS-β F671A = target: T12, ADGRG2-ΔGPS-β F671A (Mus musculus, UniProt Q8CJ12, F685A); conditions: mutant F671A; HEK293, cAMP Glosensor
T12 construct: expressed in transfected cells; host or cells: HEK293
From the text: as §1, §2

ADGRG2-ΔGPS-β V836A = target: T13, ADGRG2-ΔGPS-β V836A (Mus musculus, UniProt Q8CJ12, V850A); conditions: mutant V836A; HEK293, cAMP Glosensor
T13 construct: expressed in transfected cells; host or cells: HEK293
From the text: as §1, §2

ADGRG2-ΔGPS-β N667A = target: T14, ADGRG2-ΔGPS-β N667A (Mus musculus, UniProt Q8CJ12, N681A); conditions: mutant N667A; HEK293, cAMP Glosensor
T14 construct: expressed in transfected cells; host or cells: HEK293
From the text: as §1, §2

ADGRG2-ΔGPS-β F838A = target: T15, ADGRG2-ΔGPS-β F838A (Mus musculus, UniProt Q8CJ12, F852A); conditions: mutant F838A; HEK293, cAMP Glosensor
T15 construct: expressed in transfected cells; host or cells: HEK293
From the text: as §1, §2

T1 sequence (Q8CJ12 614-1009 F761A): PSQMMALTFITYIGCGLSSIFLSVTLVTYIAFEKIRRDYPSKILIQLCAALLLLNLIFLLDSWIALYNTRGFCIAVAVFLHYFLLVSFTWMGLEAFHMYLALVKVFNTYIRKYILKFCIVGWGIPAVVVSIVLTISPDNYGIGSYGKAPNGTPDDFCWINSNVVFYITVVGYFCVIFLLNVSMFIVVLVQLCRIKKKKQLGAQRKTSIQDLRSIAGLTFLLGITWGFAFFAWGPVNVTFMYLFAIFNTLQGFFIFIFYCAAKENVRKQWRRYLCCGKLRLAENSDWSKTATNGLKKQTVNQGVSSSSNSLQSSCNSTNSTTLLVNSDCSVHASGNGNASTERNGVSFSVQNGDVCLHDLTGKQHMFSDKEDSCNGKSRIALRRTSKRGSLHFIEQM
T2 sequence (Q8CJ12 614-1009 F786A): as the sequence (Q8CJ12 614-1009 F761A) above, with A148F, F173A counted along it
T10 sequence (Q8CJ12 614-1009 F842A): as the sequence (Q8CJ12 614-1009 F761A) above, with A148F, F229A counted along it
T13 sequence (Q8CJ12 614-1009 V850A): as the sequence (Q8CJ12 614-1009 F761A) above, with A148F, V237A counted along it
T14 sequence (Q8CJ12 614-1009 N681A): as the sequence (Q8CJ12 614-1009 F761A) above, with N68A, A148F counted along it
T3 sequence (Q8CJ12 614-1009 F778A): as the sequence (Q8CJ12 614-1009 F761A) above, with A148F, F165A counted along it
T4 sequence (Q8CJ12 614-1009 W838A): as the sequence (Q8CJ12 614-1009 F761A) above, with A148F, W225A counted along it
T7 sequence (Q8CJ12 614-1009 T624A): as the sequence (Q8CJ12 614-1009 F761A) above, with T11A, A148F counted along it
T11 sequence (Q8CJ12 614-1009 V783A): as the sequence (Q8CJ12 614-1009 F761A) above, with A148F, V170A counted along it
T5 sequence (Q8CJ12 614-1009 W676A): as the sequence (Q8CJ12 614-1009 F761A) above, with W63A, A148F counted along it
T8 sequence (Q8CJ12 614-1009 W771A): as the sequence (Q8CJ12 614-1009 F761A) above, with A148F, W158A counted along it
T9 sequence (Q8CJ12 614-1009 V782A): as the sequence (Q8CJ12 614-1009 F761A) above, with A148F, V169A counted along it
T15 sequence (Q8CJ12 614-1009 F852A): as the sequence (Q8CJ12 614-1009 F761A) above, with A148F, F239A counted along it
T12 sequence (Q8CJ12 614-1009 F685A): as the sequence (Q8CJ12 614-1009 F761A) above, with F72A, A148F counted along it

Structure (SMILES): CC[C@H](C)[C@H](NC(=O)CNC(=O)[C@H](Cc1ccc(C)cc1)NC(=O)[C@H](CO)NC(=O)[C@@H](N)C(C)C)C(=O)N[C@@H](CC(C)C)C(=O)N[C@@H](CC(C)C)C(=O)N[C@@H](CC(=O)O)C(=O)N[C@@H](CC(C)C)C(=O)N[C@@H](CO)C(=O)N[C@@H](CCCNC(=N)N)C(=O)N[C@H](C(=O)N[C@@H](CO)C(=O)N[C@@H](CC(C)C)C(=O)N1CCC[C@H]1C(=O)O)[C@@H](C)O [VPM-p15] (H-VS[Phe(4-Me)]GILLDLSRTSLP-OH)
- pEC50 (ADGRG2-ΔGPS-β F747A): 5.95
- pEC50 (ADGRG2-ΔGPS-β F772A): 5.66
- pEC50 (ADGRG2-ΔGPS-β F764A): 6.03
- pEC50 (ADGRG2-ΔGPS-β W824A): 5.01
- pEC50 (ADGRG2-ΔGPS-β W662A): 5.81
- pEC50 (ADGRG2-ΔGPS-β Y765A): 5.97
- pEC50 (ADGRG2-ΔGPS-β T610A): 5.99
- pEC50 (ADGRG2-ΔGPS-β W757A): 4.85
- pEC50 (ADGRG2-ΔGPS-β V768A): 5.13
- pEC50 (ADGRG2-ΔGPS-β F828A): 5.41
- pEC50 (ADGRG2-ΔGPS-β V769A): 5.77
- pEC50 (ADGRG2-ΔGPS-β F671A): 5.92
- pEC50 (ADGRG2-ΔGPS-β V836A): 5.38
- pEC50 (ADGRG2-ΔGPS-β N667A): 5.91
- pEC50 (ADGRG2-ΔGPS-β F838A): 5.77
